Experimental findings from patent US20260042771A1, “HETEROCYCLIC COMPOUND FOR INDUCING DEGRADATION OF G12V MUTANT KRAS PROTEIN” (Astellas Pharma Inc., priority 2022, published 2026) are described below.

One test concerns the target T1, RAS G12V (Homo sapiens, UniProt P01116, G12V).
T1 construct: host or cells: PA-TU-8902 human pancreatic cancer cells
The test can be described thus: Test Example 1: RAS G12V degradation activity by Cell ELISA in PA-TU-8902. Type of test: cell-based. The note with it: for DC50: 50% degradation concentration of RAS G12V, PA-TU-8902 cells, 24 hours, Cell ELISA, corrected with β-actin; for Dmax: PaTu 8902, degradation rate at the most active concentration, DMSO = 0%, Example No. 7 at 3 μM = 100%, PA-TU-8902, 24 hours. As for the experimental part: Test Example 1: Evaluation of RAS G12V Degradation Activity on Human KRAS G12V Mutant-Positive Pancreatic Cancer Line PA-TU-8902
The RAS G12V degradation activity of test compounds was evaluated by measuring the expression levels of RAS G12V by Cell ELISA.
PA-TU-8902 cells (DSMZ, ACC 179) were seeded at 36 μL per well on 384-well plates (from Greiner bio-one) to give 1.5×10^4 cells per well. As for the cell culture conditions, DMEM medium (from Sigma-Aldrich) containing 10% fetal bovine serum (from Cytiva) was used in the presence of 5% CO2 at 37° C.
The next day, the test compounds (10 points having final concentrations in the range of 3 μM to 0.1 nM), the compound of Example No. 7 having a final concentration of 3 μM as a positive control and dimethyl sulfoxide (DMSO), which was the solvent for the test compounds, as a negative control were diluted 100-fold with a fresh medium and were added at 4 μL per well. The cells were cultured for 24 hours.
The next day, the culture supernatant was removed, and 4% paraformaldehyde phosphate buffer (from FUJIFILM Wako Pure Chemical Corporation) was added at 20 μL per well. The plates were allowed to stand for 30 minutes at room temperature to thus immobilize the cells. Then, the supernatant was removed, and 0.1% Triton X-100 (from Amersham Biosciences)-containing Phosphate buffered saline (PBS) was added at 20 μL per well. After allowing to stand at room temperature for 10 minutes, the supernatant was removed. PBS was added at 25 μL per well, and the supernatant was removed to thus wash each well. The washing was performed twice in total. Subsequent washing operations were performed in the same manner. Next, the supernatant was removed, and 0.5% sodium dodecyl sulfate (SDS; from ThermoFisher Scientific)-containing PBS was added at 20 μL per well. After allowing to stand at room temperature for 10 minutes, the supernatant was removed by centrifugation of the plates. After washing with PBS, the supernatant was removed by centrifugation, and blocking solution (PVDF Blocking Reagent for Can Get Signal [from TOYOBO Co., Ltd.]) was added at 20 μL per well. After allowing to stand for 30 minutes at room temperature, the supernatant was removed by centrifugation and a solution obtained by diluting, as primary antibodies, anti-Ras (G12V Mutant Specific) antibody (Ras (G12V Mutant Specific) (D2H12) Rabbit mAb; from Cell Signaling Technology; 500-fold diluted) and […] (Anti-beta Actin antibody; from Abcam; 5,000-fold diluted) with Can Get Signal Solution 2 (from TOYOBO Co., Ltd.) was added at 15 μL per well. The plates were allowed to stand overnight at 4° C.
The next day, the supernatant was removed by centrifugation and washed with PBS. The supernatant was removed by centrifugation, a solution obtained by diluting, as secondary antibodies, anti-rabbit IgG antibody (IRDye 800CW Goat anti-Rabbit IgG; from LI-COR Biosciences) and anti-mouse IgG antibody (IRDye 680RD Donkey anti-Mouse IgG; from LI-COR Biosciences) 1,000-fold with Can Get Signal Solution 2 was added at 15 μL per well. After allowing to stand at room temperature for 1 hour, the supernatant was removed by centrifugation and washed with PBS. After removing the supernatant, the plates were dried with air at room temperature for 2 hours or more, and the 700 nm and 800 nm fluorescent signals were measured with Aerius (from LI-COR Biosciences).
The degradation rate of RAS G12V was calculated with the RAS G12V signaling value at the time of addition of DMSO taken as 0%, which was corrected with the signaling value of β-actin, and with the RAS G12V signaling value at the time of addition of the compound of Example No. 7 at a final concentration of 3 μM taken as 100%. […]

The test system of test [1] is human KRAS G12V mutant-positive pancreatic cancer line PA-TU-8902. The test can be described thus: Test Example 3: non-anchorage-dependent cell growth inhibition, spheroid 3D culture. The settings on record: PaTu 8902, 144 h, PA-TU-8902 spheroid 3D culture, 6 days; for IC50: CellTiter Glo 2.0. Type of test: cell-based. On the procedure:
Test Example 3: Evaluation of Non-Anchorage-Dependent Cell Growth Inhibitory Effect on Human KRAS G12V Mutant-Positive Pancreatic Cancer Line PA-TU-8902
The non-anchorage-dependent cell growth inhibitory effect of test compounds was evaluated by spheroid 3D cell culture.
PA-TU-8902 cells were seeded on low-cell-adhesive round bottom 384-well plates (PrimeSurface: from Sumitomo Bakelite) at 36 µL/well to give 5×10^2 cells per well. The cell culture was performed under the same conditions as in Test Example 1.
The next day, the test compounds (8 to 10 points having final concentrations in the range of 3 μM to 0.1 nM) and DMSO, which was the solvent for the test compounds, as a negative control were diluted 100-fold with a fresh medium and were added at 4 μL per well. After culturing in the presence of 5% CO2 at 37° C. for 6 days, CellTiter Glo 2.0 (from Promega) was added at 20 μL per well. After stirring with a plate mixer (from FINEPCR) at normal temperature for 1 hour, the luminescent signals were measured with ARVO X3 (from PerkinElmer).
With the signaling value in treatment with DMSO taken as 0% inhibition and with the signaling value in the medium alone without cells taken as 100% inhibition, the 50% inhibitory concentration values (IC50) were calculated by Sigmoid-Emax nonlinear regression analysis. The inhibition rate at 30 nM was calculated for Example No. 17.

T1 sequence (P01116 1-188 isoform P01116-2 G12V): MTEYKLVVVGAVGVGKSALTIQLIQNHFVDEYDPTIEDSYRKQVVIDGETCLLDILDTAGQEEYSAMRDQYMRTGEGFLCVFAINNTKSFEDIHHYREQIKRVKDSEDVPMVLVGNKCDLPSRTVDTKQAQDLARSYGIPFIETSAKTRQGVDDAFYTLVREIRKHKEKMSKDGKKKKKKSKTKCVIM

For the molecule `Cc1c(F)cc2[nH]ncc2c1-c1c(C2CC2)cc2c(NC3CN(c4ncccn4)C3)nc(OCC(C)(C)CN(C)C)nc2c1OCc1ccc(C(=O)N2CCN(Cc3ccc4c(c3)n(C)c(=O)n4C3CCC(=O)NC3=O)C[C@@H]2C)cc1` (some centres unmarked) [Example 8], on RAS G12V, it took 5 nM to reach half-maximal degradation (DC50) and the Dmax turned out to be 81%. The IC50 in test [1] was 48 nM.

In the case of `CO[C@@H](C)COc1nc(N2CC[C@H]2C(N)=O)c2cc(C3CC3)c(-c3c(C)c(F)cc4[nH]ncc34)c(OCc3ccc(CN4CCN(Cc5ccc6c(N7CCC(=O)NC7=O)nn(C)c6c5)C[C@@H]4C)cc3)c2n1` (atropisomer, axis not shown) [Example 19], on RAS G12V, the DC50 amounted to 26 nM and the Dmax stood at 78%. The same molecule displayed an IC50 in test [1] of 68 nM.

Consider `CO[C@@H](C)COc1nc(N2CC(C#N)C2)c2cc(C3CC3)c(-c3c(C)c(F)cc4[nH]ncc34)c(OCc3ccc(C(=O)N4CCN(Cc5ccc6c(c5)n(C)c(=O)n6C5CCC(=O)NC5=O)C[C@@H]4C)cc3)c2n1` (stereo partly drawn) [Example 2, 1-{(7 M)-6-cyclopropyl-8-({4-[(2S)-4-([1-(2,6-dioxopiperidin-3-yl)-3-methyl-2-oxo-2,3-dihydro-1H-benzimidazol-5-yl]methyl)-2-methylpiperazine-1-carbonyl]phenyl)methoxy)-7-(6-fluoro-5-methyl-1H-indazol-4-yl)-2-[(2S)-2-methoxypropoxy]quinazolin-4-yl)azetidine-3-carbonitrile], for which, on RAS G12V, the DC50 worked out at 4 nM and the Dmax came out at 89%. In test [1], this molecule registered an IC50 of 21 nM.

Take `CO[C@@H](C)COc1nc(NCc2cccnc2)c2cc(C3CC3)c(-c3c(C)c(F)cc4[nH]ncc34)c(OCc3ccc(C(=O)N4CCN(Cc5ccc6c(c5)n(C)c(=O)n6C5CCC(=O)NC5=O)C[C@@H]4C)cc3)c2n1` (some centres unmarked) [Example 4]: on RAS G12V, half-maximal degradation (DC50) was put at 7 nM and the Dmax stood at 83%. Moreover, half-maximal inhibition in test [1] (IC50) was put at 74 nM.

On to `Cc1c(F)cc2[nH]ncc2c1-c1c(C2CC2)cc2c(N3CC(C#N)C3)nc(OCC(C)(C)CN(C)C)nc2c1OCc1ccc(C(=O)N2CCN(Cc3ccc4c(c3)n(C)c(=O)n4N3CCC(=O)NC3=O)C[C@@H]2C)cc1` (atropisomer, axis not shown) [Example 10], for which, on RAS G12V, it took 6 nM to reach half-maximal degradation (DC50) and the Dmax stood at 88%. The molecule further returned an IC50 in test [1] of 22 nM.

For the molecule `Cc1c(F)cc2[nH]ncc2c1-c1c(C2CC2)cc2c(N3CC(C#N)C3)nc(OCC(C)(C)CN(C)C)nc2c1OCc1ccc(C(=O)N2CCN(Cc3ccc4c(N5CCC(=O)NC5=O)nn(C)c4c3)C[C@@H]2C)cc1` (atropisomer, axis not shown) [Example 11], at RAS G12V, it took 11 nM to reach half-maximal degradation (DC50) and the Dmax is 88%. Further, the IC50 in test [1] was 18 nM.

Consider `CO[C@@H](C)COc1nc(N2CC(C#N)C2)c2cc(C3CC3)c(-c3c(C)c(F)cc4[nH]ncc34)c(OCc3ccc(C(=O)N4CCC5(CCN(CCOc6cccc(N7CCC(=O)NC7=O)c6)CC5)CC4)cc3)c2n1` (atropisomer, axis not shown) [Example 22], for which the IC50 in test [1] worked out at 5 nM.

For `Cc1c(F)cc2[nH]ncc2c1-c1c(C2CC2)cc2c(N3CCOCC3)nc(OCC(C)(C)CN(C)C)nc2c1OCc1ccc(C(=O)N2CCN(Cc3ccc4c(c3)n(C)c(=O)n4N3CCC(=O)NC3=O)C[C@@H]2C)cc1` (atropisomer, axis not shown) [Example 9], on RAS G12V, the DC50 was found to be 6 nM and the Dmax was 88%. This molecule also displayed an IC50 in test [1] of 47 nM.

As for `CO[C@@H](C)COc1nc(N2CC(C#N)C2)c2cc(C3CC3)c(-c3c(C)c(F)cc4[nH]ncc34)c(OCc3ccc(C(=O)N4CCC5(CN(Cc6ccc7c(N8CCC(=O)NC8=O)nn(C)c7c6)C5)C4)cc3)c2n1` (atropisomer, axis not shown) [Example 13], on RAS G12V, the DC50 was found to be 27 nM and the Dmax turned out to be 104%. The 50% inhibitory concentration (IC50) in test [1] was 55 nM.

With `CO[C@@H](C)COc1nc(N2CC[C@@H](N)[C@@H](F)C2)c2cc(C3CC3)c(-c3c(C)c(F)cc4[nH]ncc34)c(OCc3ccc(C(=O)N4CCN(Cc5ccc6c(c5)n(C)c(=O)n6C5CCC(=O)NC5=O)C[C@@H]4C)cc3)c2n1` (stereo partly drawn) [Example 3, 3-(5-{[(3S)-4-{4-[({4-[(3S,4R)-4-amino-3-fluoropiperidin-1-yl]-6-cyclopropyl-7-(6-fluoro-5-methyl-1H-indazol-4-yl)-2-[(2S)-2-methoxypropoxy]quinazolin-8-yl)oxy)methyl]benzoyl}-3-methylpiperazin-1-yl]methyl}-3-methyl-2-oxo-2,3-dihydro-1H-benzimidazol-1-yl)piperidine-2,6-dione], at RAS G12V, it took 29 nM to reach half-maximal degradation (DC50) and the Dmax worked out at 74%. Besides, in test [1], the IC50 came to 67 nM.

`CO[C@@H](C)COc1nc(N2CC(C#N)C2)c2cc(C3CC3)c(-c3c(C)c(F)cc4[nH]ncc34)c(OCc3ccc(C(=O)N4CC5(CN(Cc6ccc7c(N8CCC(=O)NC8=O)nn(C)c7c6)C5)C4)cc3)c2n1` (atropisomer, axis not shown) [Example 16]: at RAS G12V, the DC50 was found to be 162 nM and the Dmax came out at 95%. The IC50 in test [1] was 255 nM.

As for `Cc1c(F)cc2[nH]ncc2c1-c1c(C2CC2)cc2c(N3CC[C@H]3C(N)=O)nc(OC[C@@H]3CCN(C)C3)nc2c1OCc1ccc(C(=O)N2CCN(Cc3ccc4c(N5CCC(=O)NC5=O)nn(C)c4c3)C[C@@H]2C)cc1` (atropisomer, axis not shown) [Example 7], at RAS G12V, the 50% degradation concentration (DC50) is 38 nM and the Dmax was 103%. In test [1], this molecule came in with a half-maximal inhibitory concentration (IC50) of 55 nM.

As for `CO[C@@H](C)COc1cc(OC2CN(C(=O)NCCN(C)C)C2)c2cc(C3CC3)c(-c3c(C)c(F)cc4[nH]ncc34)c(OCc3ccc(C(=O)N4CCN(Cc5ccc6c(c5)n(C)c(=O)n6C5CCC(=O)NC5=O)C[C@@H]4C)cc3)c2n1` (some centres unmarked) [Example 17], on RAS G12V, it took 9 nM to reach half-maximal degradation (DC50) and the Dmax was 70%. In test [1] (30 nM, CellTiter Glo 2.0, read-out: inhibition rate at 30 nM), the inhibition at 0.03 µM worked out at 50%.

Molecule `Cc1c(F)cc2[nH]ncc2c1-c1c(C2CC2)cc2c(N3CC(C#N)C3)nc(OC3CCOCC3)nc2c1OCc1ccc(C(=O)N2CCN(Cc3ccc4c(N5CCC(=O)NC5=O)nn(C)c4c3)C[C@@H]2C)cc1` (atropisomer, axis not shown) [Example 21] displayed an IC50 in test [1] of 11 nM.
